Test results as given in ChEMBL document CHEMBL4616634, “4β-Hydroxywithanolide E from Goldenberry (Whole Fruits of Physalis peruviana L.) as a Promising Agent against Chronic Obstructive Pulmonary Disease” (J Nat Prod, 2020).
Calls of active or inactive are those of the source. No cut-off for these calls is given here.

What was measured:
Mus musculus [1] = experiment: Antiinflammatory activity in C57BL/6 mouse model of CS-induced pulmonary injury assessed as reduction in IL-1beta protein expression in lungs at 2 to 4 mg/kg, ip for 5 days by ELISA; assay type: functional, organism-based
RAW264.7 [2] = experiment: Inhibition of LPS-induced NFkappaB activation in mouse RAW264.7 cells assessed as decrease in phosphorylated NFkappaB p65 at 0.5 to 4 uM pre-incubated for 1 hr followed by LPS-stimulation and measured after 2 hrs by immunoblot analysis; assay type: cell-based
Mus musculus [3] = experiment: Antiinflammatory activity in C57BL/6 mouse model of CS-induced pulmonary injury assessed as increase in Nrf2 protein expression in lungs at 2 to 4 mg/kg, ip for 5 days by immunoblot analysis; assay type: functional, organism-based
[4] = target: T1, Nuclear factor erythroid 2-related factor 2 (Homo sapiens) (UniProt Q16236); experiment: Activation of Nrf2 in human BEAS2B cells assessed as increase in NQO1 mRNA expression at 0.5 to 2 uM incubated for 24 hrs by qRT-PCR analysis; assay type: cell-based
T1 sequence (whole entry): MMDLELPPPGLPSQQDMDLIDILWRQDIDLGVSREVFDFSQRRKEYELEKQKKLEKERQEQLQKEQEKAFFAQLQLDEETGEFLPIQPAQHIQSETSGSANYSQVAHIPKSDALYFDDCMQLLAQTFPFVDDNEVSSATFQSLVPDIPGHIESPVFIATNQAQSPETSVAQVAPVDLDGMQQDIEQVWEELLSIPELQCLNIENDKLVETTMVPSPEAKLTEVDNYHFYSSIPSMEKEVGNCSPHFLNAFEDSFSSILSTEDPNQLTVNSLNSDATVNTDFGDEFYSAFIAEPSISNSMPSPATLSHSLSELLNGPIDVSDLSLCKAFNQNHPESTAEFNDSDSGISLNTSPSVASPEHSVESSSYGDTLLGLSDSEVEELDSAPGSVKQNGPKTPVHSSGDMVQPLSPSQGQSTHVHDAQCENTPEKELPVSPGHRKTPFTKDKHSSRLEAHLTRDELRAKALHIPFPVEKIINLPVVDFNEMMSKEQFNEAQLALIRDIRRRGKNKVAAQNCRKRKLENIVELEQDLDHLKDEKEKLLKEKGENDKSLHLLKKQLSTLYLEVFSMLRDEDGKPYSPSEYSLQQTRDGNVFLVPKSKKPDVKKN

Mus musculus [5] = experiment: Antiinflammatory activity in C57BL/6 mouse model of CS-induced pulmonary injury assessed as reduction in hyperplasia of pneumo-cytes in lungs at 2 to 4 mg/kg, ip for 5 days by hematoxylin and eosin staining based fluorescence microscopic analysis; assay type: functional, organism-based
[6] = target: T1, Nuclear factor erythroid 2-related factor 2 (Homo sapiens); experiment: Activation of Nrf2 in human BEAS2B cells assessed as increase in Nrf2 translocation in nucleus at 1 uM incubated for 6 hrs by DAPI staining based fluorescence microscopic analysis; assay type: cell-based
Mus musculus [7] = experiment: Antiinflammatory activity in C57BL/6 mouse model of CS-induced pulmonary injury assessed as reduction in goblet cell hyperplasia in peribronchial in lungs at 2 to 4 mg/kg, ip for 5 days by hematoxylin and eosin staining based fluorescence microscopic analysis; assay type: functional, organism-based
[8] = target: T1, Nuclear factor erythroid 2-related factor 2 (Homo sapiens); experiment: Activation of Nrf2 in human BEAS2B cells assessed as increase in Nrf2 protein expression at 5 uM incubated for 24 hrs by immunoblot analysis; assay type: cell-based
[9] = target: T1, Nuclear factor erythroid 2-related factor 2 (Homo sapiens); experiment: Activation of Nrf2 in human BEAS2B cells assessed as increase in GCLM mRNA expression at 0.5 to 2 uM incubated for 24 hrs by qRT-PCR analysis; assay type: cell-based
[10] = target: T1, Nuclear factor erythroid 2-related factor 2 (Homo sapiens); experiment: Stabilization of Nrf2 in human BEAS2B cells harboring (HA)-ubiquitin assessed as suppression of Nrf2 ubiquitination at 1 uM after 8 hrs in presence of MG132 by immunoblot analysis; assay type: cell-based
RAW264.7 [11] = experiment: Inhibition of LPS-induced COX2 protein expression in mouse RAW264.7 cells at 0.5 to 4 uM preincubated for 1 hr followed by LPS-stimulation and measured after 16 hrs by immunoblot analysis; assay type: functional, cell-based
RAW264.7 [12] = experiment: Inhibition of LPS-induced IL-6 protein expression in mouse RAW264.7 cells at 0.5 to 4 uM preincubated for 1 hr followed by LPS-stimulation and measured after 16 hrs by immunoblot analysis; assay type: functional, cell-based
[13] = target: T1, Nuclear factor erythroid 2-related factor 2 (Homo sapiens); experiment: Activation of Nrf2 in human BEAS2B cells harboring Keap1-C151S mutant assessed as increase in Nrf2 protein expression at 2.5 uM after12 hrs in presence of Keap1-siRNA by immunoblot analysis; assay type: cell-based
RAW264.7 [14] = experiment: Inhibition of LPS-induced NFkappaB activation in mouse RAW264.7 cells assessed as increase in IKBalpha protein expression at 0.5 to 4 uM pre-incubated for 1 hr followed by LPS-stimulation and measured after 2 hrs by immunoblot analysis; assay type: cell-based
[15] = target: T1, Nuclear factor erythroid 2-related factor 2 (Homo sapiens); experiment: Activation of Nrf2 in human BEAS2B cells assessed as increase in NQO1 protein expression incubated for 12 hrs by immunoblot analysis; assay type: cell-based
RAW264.7 [16] = experiment: Inhibition of LPS-induced NFkappaB activation in mouse RAW264.7 cells pre-incubated for 1 hr followed by LPS-stimulation and measured after 16 hrs by dual luciferase reporter gene assay; assay type: cell-based
Mus musculus [17] = experiment: Antioxidant Activity in C57BL/6 mouse model of CS-induced pulmonary injury assessed as decrease in MDA level in lungs at 2 to 4 mg/kg, ip for 5 days; assay type: functional, organism-based
[18] = target: T1, Nuclear factor erythroid 2-related factor 2 (Homo sapiens); experiment: Activation of Nrf2 in human BEAS2B cells assessed as increase in Nrf2 mRNA expression at 0.5 to 2 uM incubated for 24 hrs by qRT-PCR analysis; assay type: cell-based
RAW264.7 [19] = experiment: Inhibition of LPS-induced IL-1beta protein expression in mouse RAW264.7 cells at 0.5 to 4 uM preincubated for 1 hr followed by LPS-stimulation and measured after 16 hrs by immunoblot analysis; assay type: functional, cell-based
[20] = target: T1, Nuclear factor erythroid 2-related factor 2 (Homo sapiens); experiment: Activation of Nrf2 in human BEAS2B cells assessed as increase in luciferase activity at 0.25 to 2 uM incubated for 18 hrs by dual luciferase reporter gene assay; assay type: cell-based
[21] = target: T1, Nuclear factor erythroid 2-related factor 2 (Homo sapiens); experiment: Activation of Nrf2 in human MDA-MB-231 cells assessed as increase in Nrf2 protein level at 0.5 uM incubated for 16 hrs by immunoblot analysis; assay type: cell-based
MDA-MB-231 = experiment: Cytotoxicity against human MDA-MB-231 cells assessed as decrease in cell viability at 0.13 to 10 uM after 24 to 48 hrs by MTT assay; assay type: cell-based; conditions: mda-mb-231, 10 µM
[22] = target: T1, Nuclear factor erythroid 2-related factor 2 (Homo sapiens); experiment: Activation of Nrf2 in human BEAS2B cells harboring wild type Keap1 assessed as increase in Nrf2 protein expression at 2 uM after12 hrs in presence of Keap1-siRNA by immunoblot analysis; assay type: cell-based
[23] = target: Transcription factor p65 (Mus musculus) (UniProt Q04207); experiment: Inhibition of LPS-induced NFkappaB p65 nucleus translocation in mouse RAW264.7 cells at 2 uM pre-incubated for 1 hr followed by LPS-stimulation and measured after 1 hr by immunoblot analysis; assay type: cell-based
RAW264.7 [24] = experiment: Inhibition of LPS-induced IL-6 mRNA expression in mouse RAW264.7 cells at 0.5 to 4 uM preincubated for 1 hr followed by LPS-stimulation and measured after 6 hrs by qRT-PCR analysis; assay type: functional, cell-based

Transcription factor p65 (Mus musculus), sequence (Q04207 whole entry): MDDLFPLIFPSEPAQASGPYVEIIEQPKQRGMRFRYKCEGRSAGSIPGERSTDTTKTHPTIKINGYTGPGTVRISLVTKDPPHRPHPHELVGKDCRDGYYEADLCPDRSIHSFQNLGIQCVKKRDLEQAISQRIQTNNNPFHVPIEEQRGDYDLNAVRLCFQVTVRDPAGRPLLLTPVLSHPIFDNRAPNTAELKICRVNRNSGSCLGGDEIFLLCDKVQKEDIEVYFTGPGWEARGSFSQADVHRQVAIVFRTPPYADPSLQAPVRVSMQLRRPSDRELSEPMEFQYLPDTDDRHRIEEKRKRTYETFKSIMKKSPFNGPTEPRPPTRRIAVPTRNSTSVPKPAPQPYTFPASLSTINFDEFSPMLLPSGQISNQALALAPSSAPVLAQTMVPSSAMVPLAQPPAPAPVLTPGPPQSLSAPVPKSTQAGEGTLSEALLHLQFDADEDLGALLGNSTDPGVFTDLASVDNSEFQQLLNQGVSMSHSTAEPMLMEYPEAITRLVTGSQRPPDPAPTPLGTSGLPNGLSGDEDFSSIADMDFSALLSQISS

## CC1=C(C)C(=O)O[C@H]([C@](C)(O)[C@]2(O)CC[C@@]3(O)[C@@H]4C[C@H]5O[C@]56[C@@H](O)C=CC(=O)[C@]6(C)[C@H]4CC[C@]23C)C1
Mus musculus [1]
  Activity: Active
RAW264.7 [2]
  inhibition: Active
Mus musculus [3]
  Activity: Active
[4]
  Activity: Active
Mus musculus [5]
  Activity: Active
[6]
  Activity: Active
Mus musculus [7]
  Activity: Active
[8]
  Activity: Active
[9]
  Activity: Active
[10]
  Activity: Active
RAW264.7 [11]
  inhibition: Active
RAW264.7 [12]
  inhibition: Active
[13]
  Activity: inactive
RAW264.7 [14]
  inhibition: Active
[15]
  Activity: Dose-dependent effect
RAW264.7 [16]
  inhibition: Dose-dependent effect
Mus musculus [17]
  Activity: Active
[18]
  Activity: Active
RAW264.7 [19]
  inhibition: Active
[20]
  Activity: Active
[21]
  Activity: Active
MDA-MB-231
  Activity: Toxic
[22]
  Activity: Active
[23]
  inhibition: Active
RAW264.7 [24]
  inhibition: Active
